From ChEMBL document CHEMBL3351804, “Development of 2-aryl substituted quinazolin-4(3H)-one, pyrido[4,3-d]pyrimidin-4(3H)-one and pyrido[2,3-d]pyrimidin-4(3H)-one derivatives as microsomal prostaglandin E(2) synthase-1 inhibitors” (Bioorg Med Chem Lett, 2014)

What was measured:
[1] = target: T1, Prostacyclin synthase (Homo sapiens) (UniProt Q16647); test: Inhibition of recombinant PGIS (unknown origin) at 10 uM
T1 sequence (whole entry): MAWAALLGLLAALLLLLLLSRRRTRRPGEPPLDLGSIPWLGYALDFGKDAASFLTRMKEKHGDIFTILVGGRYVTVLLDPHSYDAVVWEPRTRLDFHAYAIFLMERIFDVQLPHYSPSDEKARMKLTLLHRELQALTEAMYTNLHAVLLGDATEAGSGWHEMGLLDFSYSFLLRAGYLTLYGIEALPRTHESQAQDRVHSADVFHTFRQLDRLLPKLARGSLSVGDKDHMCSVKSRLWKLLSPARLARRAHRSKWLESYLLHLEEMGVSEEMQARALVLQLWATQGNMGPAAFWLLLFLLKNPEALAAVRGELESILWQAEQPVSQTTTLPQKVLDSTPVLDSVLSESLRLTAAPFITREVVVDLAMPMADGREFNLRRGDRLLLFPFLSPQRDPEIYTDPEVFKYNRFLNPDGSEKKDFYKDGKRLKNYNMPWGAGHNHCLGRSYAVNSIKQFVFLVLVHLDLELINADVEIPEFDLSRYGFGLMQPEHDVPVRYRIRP

[2] = target: T2, Prostaglandin E synthase (Homo sapiens, UniProt O14684); test: Inhibition of human recombinant mPGES-1 expressed in CHO cells using PGH2 as substrate incubated for 10 mins prior to substrate addition measured after 1 min
T2 sequence (O14684 whole entry): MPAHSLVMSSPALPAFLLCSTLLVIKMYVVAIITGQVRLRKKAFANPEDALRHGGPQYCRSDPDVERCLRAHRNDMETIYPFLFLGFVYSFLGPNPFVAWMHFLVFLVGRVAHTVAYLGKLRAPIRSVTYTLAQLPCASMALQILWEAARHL

[3] = target: T3, Prostaglandin E synthase (Canis lupus familiaris, UniProt A0SYQ0); test: Inhibition of mPGES-1 in dog whole blood assessed as inhibition of LPS-induced PGE2 production after overnight incubation
T3 sequence (A0SYQ0 whole entry): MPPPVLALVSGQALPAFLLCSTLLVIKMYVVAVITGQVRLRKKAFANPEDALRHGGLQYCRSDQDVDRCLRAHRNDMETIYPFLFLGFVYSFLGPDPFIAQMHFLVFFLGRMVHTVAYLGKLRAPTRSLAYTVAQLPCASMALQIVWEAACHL

[4] = Inhibition of guinea pig recombinant mPGES-1; parameters: species or system Cavia porcellus

inhibition [1]: 0.67% | IC50 [2]: 5 nM | IC50 [3]: 154 nM | IC50 [4]: 12 nM
Compound: CC(C)C(=O)NCc1ccc(Cl)c(-c2nc3cc(-c4ccc(C(F)(F)F)cc4)ncc3c(=O)[nH]2)c1
